Measured values taken from US20230210825A1, “METHODS AND COMPOSITIONS FOR TREATING SUBJECTS WITH METABOLIC DISORDERS AND CORONAVIRUS INFECTIONS” (CIRIUS THERAPEUTICS, INC., priority 2020, published 2023).

Tests used:
[1] = molecular target: T1, PPARγ (Homo sapiens, UniProt P37231); assay: Relative binding affinity for PPARγ (FIG. 1); conditions: FIG. 1, relative binding affinity
T1 sequence (P37231 1-505): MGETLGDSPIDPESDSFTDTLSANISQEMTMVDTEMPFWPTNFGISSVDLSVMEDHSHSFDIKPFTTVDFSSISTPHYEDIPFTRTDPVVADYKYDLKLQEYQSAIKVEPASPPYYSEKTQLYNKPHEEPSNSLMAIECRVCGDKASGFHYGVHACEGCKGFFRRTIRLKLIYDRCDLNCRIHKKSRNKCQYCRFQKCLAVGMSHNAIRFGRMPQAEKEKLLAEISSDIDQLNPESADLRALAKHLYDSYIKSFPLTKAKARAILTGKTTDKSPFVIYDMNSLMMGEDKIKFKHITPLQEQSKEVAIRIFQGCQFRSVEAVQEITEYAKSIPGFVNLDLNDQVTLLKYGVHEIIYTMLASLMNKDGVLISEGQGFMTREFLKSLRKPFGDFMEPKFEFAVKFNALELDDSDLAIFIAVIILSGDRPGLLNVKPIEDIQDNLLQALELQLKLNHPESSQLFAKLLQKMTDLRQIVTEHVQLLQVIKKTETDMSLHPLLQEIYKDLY

[2] = molecular target: T2, mitochondrial pyruvate carrier (MPC) (Homo sapiens, UniProt O95563+Q9Y5U8); assay: Relative binding affinity for the MPC (FIG. 2)
T2 sequence (Q9Y5U8 1-109): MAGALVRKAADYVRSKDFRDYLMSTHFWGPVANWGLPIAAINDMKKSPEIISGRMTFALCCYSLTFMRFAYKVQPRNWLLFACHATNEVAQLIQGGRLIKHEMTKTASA
T2 sequence (O95563 1-127): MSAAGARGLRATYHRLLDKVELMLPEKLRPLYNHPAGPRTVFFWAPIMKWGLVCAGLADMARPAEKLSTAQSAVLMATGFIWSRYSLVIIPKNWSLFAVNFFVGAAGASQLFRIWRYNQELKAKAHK

[3] = metabolite share of combined exposure after MSDC-0602
[4] = molecular target: CYP2C8 (Homo sapiens, UniProt P10632)
Sequence of CYP2C8 (P10632 whole entry): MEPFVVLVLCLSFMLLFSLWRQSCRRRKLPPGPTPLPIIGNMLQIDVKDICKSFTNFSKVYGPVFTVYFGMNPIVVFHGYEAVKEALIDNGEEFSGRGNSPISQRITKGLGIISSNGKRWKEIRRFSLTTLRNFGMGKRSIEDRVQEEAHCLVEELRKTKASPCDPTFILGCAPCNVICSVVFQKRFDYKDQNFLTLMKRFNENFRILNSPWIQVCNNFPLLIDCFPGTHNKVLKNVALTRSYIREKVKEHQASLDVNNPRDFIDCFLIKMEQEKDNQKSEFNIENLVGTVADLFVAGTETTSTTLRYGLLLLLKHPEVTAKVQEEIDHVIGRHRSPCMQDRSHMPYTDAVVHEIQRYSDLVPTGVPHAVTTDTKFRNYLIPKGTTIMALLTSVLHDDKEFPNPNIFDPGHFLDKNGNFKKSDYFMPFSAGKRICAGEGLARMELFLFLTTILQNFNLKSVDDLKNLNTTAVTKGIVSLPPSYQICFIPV

[5] = molecular target: T3, organic anion transporter 3 (OAT3) (Homo sapiens, UniProt Q8TCC7); assay: OAT3 inhibition
T3 sequence (Q8TCC7 1-542): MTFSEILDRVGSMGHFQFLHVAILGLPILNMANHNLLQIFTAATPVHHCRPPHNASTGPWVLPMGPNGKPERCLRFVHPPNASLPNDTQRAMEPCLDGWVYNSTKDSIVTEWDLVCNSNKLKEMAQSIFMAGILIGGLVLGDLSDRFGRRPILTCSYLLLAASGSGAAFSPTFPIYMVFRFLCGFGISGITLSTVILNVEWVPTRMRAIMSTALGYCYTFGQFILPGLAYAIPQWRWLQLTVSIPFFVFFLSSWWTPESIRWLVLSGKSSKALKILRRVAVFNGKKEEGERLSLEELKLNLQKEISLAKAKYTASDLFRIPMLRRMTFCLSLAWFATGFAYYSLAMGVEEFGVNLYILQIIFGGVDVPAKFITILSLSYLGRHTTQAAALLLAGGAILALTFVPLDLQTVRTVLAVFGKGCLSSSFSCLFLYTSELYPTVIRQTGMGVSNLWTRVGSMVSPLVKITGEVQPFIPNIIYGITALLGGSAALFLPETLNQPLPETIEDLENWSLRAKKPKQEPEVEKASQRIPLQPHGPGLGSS

[6] = Earlier phase 2 trials: adiponectin at 28 days; set-up: species or system human; conditions: in vivo
[7] = test system: mouse model of a metabolic disorder; conditions: reported earlier; effects require MPC expression in hepatocytes; cited from earlier work
[8] = molecular target: multidrug resistance protein 1 (MDR1) (Homo sapiens, UniProt P08183); assay: MDR1 inhibition
[9] = molecular target: T4, breast cancer-related protein (BCRP) (Homo sapiens, UniProt Q9UNQ0); assay: BCRP inhibition; conditions: not told
T4 sequence (Q9UNQ0 1-655): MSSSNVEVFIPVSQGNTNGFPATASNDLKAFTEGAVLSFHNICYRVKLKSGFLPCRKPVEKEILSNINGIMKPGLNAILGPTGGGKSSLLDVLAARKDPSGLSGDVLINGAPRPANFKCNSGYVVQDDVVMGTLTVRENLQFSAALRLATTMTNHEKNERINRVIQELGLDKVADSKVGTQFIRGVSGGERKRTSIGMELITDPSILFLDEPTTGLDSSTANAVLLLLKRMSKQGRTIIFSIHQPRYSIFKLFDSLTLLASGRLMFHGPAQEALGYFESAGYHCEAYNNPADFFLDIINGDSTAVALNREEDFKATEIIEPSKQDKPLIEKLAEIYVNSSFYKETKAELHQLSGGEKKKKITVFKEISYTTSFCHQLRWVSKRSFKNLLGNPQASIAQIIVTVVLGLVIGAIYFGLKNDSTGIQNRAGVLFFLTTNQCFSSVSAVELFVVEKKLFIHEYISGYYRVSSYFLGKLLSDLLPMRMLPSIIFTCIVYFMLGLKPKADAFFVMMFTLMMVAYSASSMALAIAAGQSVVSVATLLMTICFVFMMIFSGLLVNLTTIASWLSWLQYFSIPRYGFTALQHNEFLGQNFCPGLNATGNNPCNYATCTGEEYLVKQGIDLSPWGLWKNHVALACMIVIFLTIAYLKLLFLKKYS

| SMILES | reduction in binding affinity for PPARγ compared to pioglitazone [1] | binding to the MPC [2] | share of the combined exposure [3] | inhibition of CYP2C8 [4] | inhibition of organic anion transporter 3 (OAT3) [5] | increase in adiponectin levels [6] [%] | damage caused to the liver [7] | inhibition of MDR1 [8] | inhibition of BCRP [9] |
| --- | --- | --- | --- | --- | --- | --- | --- | --- | --- |
| COc1cccc(C(O)COc2ccc(CC3SC(=O)NC3=O)cc2)c1 (centres unmarked) [MSDC-0597] | more than fifty-fold | maintain, and in some cases improve, binding to the MPC | more than 90% | weak inhibitor | inhibitors | – | – | – | – |
| COc1cccc(C(=O)COc2ccc(CC3SC(=O)NC3=O)cc2)c1 (centres unmarked) [MSDC-0602] | – | maintain, and in some cases improve, binding to the MPC | – | – | inhibitors | 146 | prevents and reverses damage caused to the liver | inhibitor | inhibitor |
